Measurements: EP0974351A2, “Medicament for preventing and treating gastrointestinal damage” (JOUVEINAL, priority 1998, dated 2000)

Legend:
[1] = tested on: Abdominal Response Induced by Rectal Distension; assay: Abdominal response induced by rectal distension in rats (electromyography); format: in vivo, Male Wistar rats
Description: The GABA analogs also have been evaluated for their ability to control and treat gastrointestinal disorders characterized as IBD and IBS. The assay utilized to evaluate the GABA analogs measures the effects of compound on lipopolysaccharide-induced delayed rectal allodynia in rats. Intraperitoneal (IP) injections of the endotoxin lipopolysaccharide (LPS) are known to induce long-lasting hyperalgesia in somatic pain models. The following assay was designed to evaluate the effect of IP injections of LPS on pain visceral threshold in an experimental model of rectal distension.
Male Wistar rats weighing 250 to 350 g were surgically prepared for electromyography, according to a previously described technique. Rats were anesthetized by i.p. injection of acepromazine and ketamine (Imalgene 1000, Rhöne-Mérieux, Lyon, France) at doses of 0.6 and 120 mg/kg, respectively. […] Electrodes were exteriorized on the back of the neck and protected by a glass tube attached to the skin. Animals were individually housed in polypropylene cages and kept in a temperature-controlled room (21°C). They were allowed free access to water and food (UAR pellets, Epinay, France).
Electromyographic recording began 5 days after surgery. The electrical activity of abdominal striated muscles was recorded with an electroencephalograph machine (Mini VIII, Alvar, Paris, France) using a short-time constant (0.03 sec) to remove low-frequency signals (<3 Hz) and a paper speed of 3.6 cm/minute.
Rats were placed in plastic tunnels (6 cm diameter; 25 cm length) where they could not move, escape or turn around, in order to prevent damage to the balloon. They are accustomized to this procedure for 3 or 4 days before rectal distension (RD) in order to minimize stress reaction during experiments. […] The balloon used for distension was an arterial embolectomy catheter (Fogarty, Edwards Laboratories, Inc., Santa Ana, USA). RD was performed by insertion of the balloon (2-mm diameter; 2-cm long) in the rectum, at 1 cm of the anus, the catheter being fixed at the tail. It was inflated progressively by step of 0.4 mL, from 0 to 1.6 mL, each step of inflation lasting 5 minutes. To detect possible leakage, the volume of water introduced in the balloon was checked by complete removal with a syringe at the end of the distension period.
In a first series of experiments, a group of 89 rats were submitted to gradual rectal distention. The animals were previously (30 minutes) treated by gabapentin at doses of 30 and 100 mg/kg IP or its vehicle ([…]).
Statistical analysis of the number of abdominal contractions occurring during each 5-minute period during RD was performed by one-way ANOVA followed by Student's paired t-test. Values were expressed as the mean ± SEM, and differences were considered significant for p <0.05.

Anxiety-Related Behavior = assay: Elevated plus maze, anxiety-related behavior 8 hours after ethanol withdrawal in mice; format: in vivo, Male albino mice of the outbred TO strain
Procedure: Male albino mice of the outbred TO strain (Bantin and Kingman, UK) were used in all studies. The weight ranged from 25 to 35 g, with no more than a 5 g range in any single experiment. The mice were housed, eight per cage, at 21°C ± 1°C, with 55 ± 10% relative humidity, and a 12-hour light/dark cycle with the light phase between 09:00 to 21:00. All mice received ad libitum access to tap water and standard laboratory chow (RM-1, Special Diet Services, UK) until their use in experiments or until their diet was replaced with a liquid diet.
Ethanol was administered in a liquid diet schedule. All mice received control diet for an initial 2-day period. Ethanol treated mice then received a diet containing 3.5% (v/v) ethanol/water for 2 days, followed by a diet containing 7% ethanol for a further 5 days. The average intake was 22 to 30 g/kg/day. Control groups were pair-fed a control diet, balanced isocalorifically to match the ethanol containing diet. There were no differences in the weights of the ethanol-treated and control mice at the end of the treatment periods. When mice were withdrawn from the ethanol (between 07:00 AM and 09:00 AM), they were provided with tap water until their use in experiments.
Gabapentin was dissolved in saline, the solution being made freshly each testing day. Intraperitoneal (i.p.) injections of either gabapentin, 10 mL/kg, or saline, were given immediately on withdrawal from the ethanol treatment, in the studies on the handling responses and 2 hours prior to measurement of audiogenic seizures. In the experiments using the elevated plus maze, gabapentin or saline was injected i.p. at 8 hours after the removal of the ethanol diet, and the mice placed on the plus maze 60 minutes after the injections. In the studies on motor co-ordination (ataxia) and on locomotor activity, gabapentin or saline was injected to ethanol-naive chow fed mice immediately before testing. Measurements were then made for 60 minutes for the ataxia study, and for 30 minutes in the case of the locomotor activity.
Mice were withdrawn from the ethanol diet at 7:00 AM and tested for anxiety-related behavior 8 hours later using a murine elevated plus-maze. It was constructed of perspex with two opposing open arms (30 × 5 × 0.25 cm) and two opposing closed arms (30 × 5 × 15 cm) which extended from a central platform (5 × 5 cm). The floor was of matt black perspex. The animals were acclimatized to the experimental room 1 hour prior to experimentation. Experiments were conducted under dim red light, and each 5 minute session was video-taped for later analysis, by an observer unaware of the prior treatment. During this analysis (Observer 3.0, Noldus Information Technology, Wageningen, Netherlands) measurements were made of the time spent on each arm of the maze, the number of entries onto each arm and rearing activity. Measures were also made as described in Table 3.
The results of the handling response ratings were compared by nonparametric two-way analysis of variance, designed for repeat measures on the same animal. The results of the area under the curve calculations were compared by the Mann-Whitney U-test. The convulsion incidence was analyzed by Fisher's exact probability test. […] The ataxia measurements were analyzed by the Mann-Whitney U-test and the locomotor activity by Student's t-test.

SMILES: NCC1(CC(=O)O)CCCCC1 [Gabapentin, 1-(aminomethyl)-cyclohexane acetic acid]
- Number of abdominal contractions/5 minutes ([1]; Gabapentin 30 mg/kg IP 30 min before, volume of distension 0.4mL, vehicle 4.4 ± 1.6, mean ± SEM): 5.0 ± 2.1 abdominal contractions/5 minutes
- % of reduction vs vehicle ([1]; Gabapentin 30 mg/kg IP, volume of distension 0.8 mL): -45%
- Number of abdominal contractions/5 minutes ([1]; Gabapentin 30 mg/kg IP, volume of distension 0.8 mL, vehicle 19.1 ± 2.8, p <0.01): 10.6 ± 3.4 abdominal contractions/5 minutes
- % of reduction vs vehicle ([1]; Gabapentin 30 mg/kg IP, volume of distension 1.2 mL): -31.2%
- Number of abdominal contractions/5 minutes ([1]; Gabapentin 30 mg/kg IP, volume of distension 1.2 mL, vehicle 23.4 ± 2.6, p <0.05): 16.1 ± 2.3 abdominal contractions/5 minutes
- Number of abdominal contractions/5 minutes ([1]; Gabapentin 100 mg/kg IP, volume of distension 0.4mL, vehicle 3.9 ± 1.8): 2.0 ± 1.4 abdominal contractions/5 minutes
- % of reduction vs vehicle ([1]; Gabapentin 100 mg/kg IP, volume of distension 0.8 mL): -61.2%
- Number of abdominal contractions/5 minutes ([1]; Gabapentin 100 mg/kg IP, volume of distension 0.8 mL, vehicle 19.6 ± 2.3, p <0.01): 7.6 ± 3.4 abdominal contractions/5 minutes
- Number of abdominal contractions/5 minutes ([1]; Gabapentin 100 mg/kg IP, volume of distension 1.2 mL, vehicle 19.1 ± 2.3): 16.7 ± 2.9 abdominal contractions/5 minutes
- decrease in the percentage time spent on the open arms caused by ethanol withdrawal (Anxiety-Related Behavior; gabapentin 50 mg/kg i.p. 60 min before test, p <0.05 vs saline): decreased this effect
- decrease in the percentage time spent on the open arms caused by ethanol withdrawal (Anxiety-Related Behavior; gabapentin 100 mg/kg i.p. 60 min before test, p <0.01 vs saline): decreased this effect
- mean time on the open arms in control animals (Anxiety-Related Behavior; gabapentin 100 mg/kg i.p., control diet, mean increased): not significantly different from controls with saline
- number of protected head dips in control animals (Anxiety-Related Behavior; gabapentin 100 mg/kg i.p., control diet, p <005 (so in the source)): significantly decreased
- increase in protected head dips in mice undergoing ethanol withdrawal (Anxiety-Related Behavior; gabapentin 100 mg/kg i.p., p <0.01 compared with saline): significantly reduced
